From ChEMBL document CHEMBL5696441 (Nat Chem Biol, 2011)

Columns and labels:
[1] = target: Phosphatidylinositol 5-phosphate 4-kinase type-2 beta (Homo sapiens) (UniProt P78356); experiment: Inhibition of PIP5K2B (unknown origin) assessed as remaining activity at 1 uM by Kinome scan method relative to control
[2] = target: Atypical kinase COQ8A, mitochondrial (Homo sapiens) (UniProt Q8NI60); experiment: Inhibition of ADCK3 (unknown origin) assessed as remaining activity at 1 uM by Kinome scan method relative to control
[3] = target: Dual specificity tyrosine-phosphorylation-regulated kinase 2 (Homo sapiens) (UniProt Q92630); experiment: Inhibition of DYRK2 (unknown origin) assessed as remaining activity at 1 uM by Kinome scan method relative to control
[4] = target: Mitogen-activated protein kinase 11 (Homo sapiens) (UniProt Q15759); experiment: Inhibition of P38beta (unknown origin) assessed as remaining activity at 1 uM by Kinome scan method relative to control
[5] = target: Phosphatidylinositol 4,5-bisphosphate 3-kinase catalytic subunit gamma isoform (Homo sapiens) (UniProt P48736); experiment: Inhibition of PIK3CG (unknown origin) assessed as remaining activity at 1 uM by Kinome scan method relative to control
[6] = target: T1, Ephrin type-A receptor 3 (Homo sapiens) (UniProt P29320); experiment: Inhibition of EPHA3 (unknown origin) assessed as remaining activity at 1 uM by Kinome scan method relative to control
T1 sequence (whole entry): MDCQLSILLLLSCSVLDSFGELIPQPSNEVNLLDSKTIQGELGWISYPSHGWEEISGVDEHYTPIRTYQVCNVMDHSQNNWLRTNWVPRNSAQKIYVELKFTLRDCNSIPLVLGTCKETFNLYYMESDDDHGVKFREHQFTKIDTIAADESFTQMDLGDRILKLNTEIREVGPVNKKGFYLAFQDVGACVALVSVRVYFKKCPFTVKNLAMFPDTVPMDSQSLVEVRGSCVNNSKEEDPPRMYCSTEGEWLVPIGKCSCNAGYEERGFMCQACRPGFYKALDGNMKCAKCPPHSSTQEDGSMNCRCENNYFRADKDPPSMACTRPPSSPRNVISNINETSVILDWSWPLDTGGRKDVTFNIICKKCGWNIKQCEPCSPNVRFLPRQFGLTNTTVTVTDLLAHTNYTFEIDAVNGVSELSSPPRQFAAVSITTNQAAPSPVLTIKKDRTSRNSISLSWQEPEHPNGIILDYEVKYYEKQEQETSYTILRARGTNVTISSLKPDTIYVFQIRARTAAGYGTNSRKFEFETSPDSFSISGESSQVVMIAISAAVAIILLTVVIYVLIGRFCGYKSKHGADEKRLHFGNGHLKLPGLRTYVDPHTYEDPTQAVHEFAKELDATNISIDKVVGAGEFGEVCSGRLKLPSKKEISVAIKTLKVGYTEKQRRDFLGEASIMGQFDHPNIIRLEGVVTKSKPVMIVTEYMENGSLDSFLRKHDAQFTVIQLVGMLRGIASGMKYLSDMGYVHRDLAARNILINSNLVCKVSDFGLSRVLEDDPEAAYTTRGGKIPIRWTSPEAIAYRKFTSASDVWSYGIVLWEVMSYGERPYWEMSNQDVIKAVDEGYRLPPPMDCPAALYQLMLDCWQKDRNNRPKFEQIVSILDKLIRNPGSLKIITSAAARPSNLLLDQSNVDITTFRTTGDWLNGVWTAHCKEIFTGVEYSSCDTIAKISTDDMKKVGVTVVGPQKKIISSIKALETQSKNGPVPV

[7] = target: Serine/threonine-protein kinase 33 (Homo sapiens) (UniProt Q9BYT3); experiment: Inhibition of STK33 (unknown origin) assessed as remaining activity at 1 uM by Kinome scan method relative to control
[8] = target: Cyclin-dependent kinase 16 (Homo sapiens) (UniProt Q00536); experiment: Inhibition of PCTK1 (unknown origin) assessed as remaining activity at 1 uM by Kinome scan method relative to control
Cyclin-dependent kinase 16 (Homo sapiens), sequence (Q00536 whole entry, canonical isoform): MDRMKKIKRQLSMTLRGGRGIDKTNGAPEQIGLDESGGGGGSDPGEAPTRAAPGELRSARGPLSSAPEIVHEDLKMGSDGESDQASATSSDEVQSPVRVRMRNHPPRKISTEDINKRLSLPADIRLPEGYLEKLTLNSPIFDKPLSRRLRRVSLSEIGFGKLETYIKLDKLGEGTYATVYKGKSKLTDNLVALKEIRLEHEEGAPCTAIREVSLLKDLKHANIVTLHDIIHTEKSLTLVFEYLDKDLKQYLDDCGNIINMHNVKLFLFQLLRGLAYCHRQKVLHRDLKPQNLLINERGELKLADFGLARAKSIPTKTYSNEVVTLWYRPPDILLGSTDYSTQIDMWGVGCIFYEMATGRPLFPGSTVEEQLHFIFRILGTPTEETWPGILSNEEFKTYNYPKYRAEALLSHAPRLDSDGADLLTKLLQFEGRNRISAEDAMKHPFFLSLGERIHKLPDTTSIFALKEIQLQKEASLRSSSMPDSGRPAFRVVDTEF

[9] = target: Casein kinase I isoform delta (Homo sapiens) (UniProt P48730); experiment: Inhibition of CSNK1D (unknown origin) assessed as remaining activity at 1 uM by Kinome scan method relative to control
[10] = target: Mitogen-activated protein kinase 7 (Homo sapiens) (UniProt Q13164); experiment: Inhibition of ERK5 (unknown origin) assessed as remaining activity at 1 uM by Kinome scan method relative to control
Mitogen-activated protein kinase 7 (Homo sapiens), sequence (Q13164 2-816 limits assumed): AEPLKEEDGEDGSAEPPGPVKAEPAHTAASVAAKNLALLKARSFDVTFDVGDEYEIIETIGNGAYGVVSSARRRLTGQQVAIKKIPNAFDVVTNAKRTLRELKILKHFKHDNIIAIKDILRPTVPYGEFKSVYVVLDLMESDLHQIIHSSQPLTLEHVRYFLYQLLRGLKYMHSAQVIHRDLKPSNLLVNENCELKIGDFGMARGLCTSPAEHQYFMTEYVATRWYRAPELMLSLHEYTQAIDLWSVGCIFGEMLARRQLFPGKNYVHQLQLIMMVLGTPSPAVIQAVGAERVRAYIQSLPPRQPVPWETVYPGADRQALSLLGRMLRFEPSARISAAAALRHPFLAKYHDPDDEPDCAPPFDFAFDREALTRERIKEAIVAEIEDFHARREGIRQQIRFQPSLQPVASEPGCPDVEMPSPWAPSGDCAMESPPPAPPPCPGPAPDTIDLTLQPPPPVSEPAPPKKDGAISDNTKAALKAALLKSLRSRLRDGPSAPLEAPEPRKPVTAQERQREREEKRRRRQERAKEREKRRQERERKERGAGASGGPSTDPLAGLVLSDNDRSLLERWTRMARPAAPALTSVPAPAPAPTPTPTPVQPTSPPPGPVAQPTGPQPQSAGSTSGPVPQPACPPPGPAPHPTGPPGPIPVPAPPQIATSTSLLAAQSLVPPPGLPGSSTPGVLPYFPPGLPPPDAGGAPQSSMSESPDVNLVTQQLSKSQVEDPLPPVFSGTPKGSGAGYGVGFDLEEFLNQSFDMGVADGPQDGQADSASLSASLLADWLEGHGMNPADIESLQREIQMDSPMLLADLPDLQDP

[11] = target: Dual specificity mitogen-activated protein kinase kinase 3 (Homo sapiens) (UniProt P46734); experiment: Inhibition of MEK3 (unknown origin) assessed as remaining activity at 1 uM by Kinome scan method relative to control
Dual specificity mitogen-activated protein kinase kinase 3 (Homo sapiens), sequence (P46734 whole entry): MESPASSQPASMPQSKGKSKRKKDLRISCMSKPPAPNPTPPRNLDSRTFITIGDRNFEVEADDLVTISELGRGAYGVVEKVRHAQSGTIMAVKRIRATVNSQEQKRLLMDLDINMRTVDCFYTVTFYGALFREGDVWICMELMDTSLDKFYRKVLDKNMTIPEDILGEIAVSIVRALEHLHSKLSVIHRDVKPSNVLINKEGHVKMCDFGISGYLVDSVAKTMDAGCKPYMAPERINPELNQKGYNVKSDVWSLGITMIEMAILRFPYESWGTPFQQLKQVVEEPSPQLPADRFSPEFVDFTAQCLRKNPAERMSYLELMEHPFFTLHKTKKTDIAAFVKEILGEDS

[12] = target: Mitogen-activated protein kinase 4 (Homo sapiens) (UniProt P31152); experiment: Inhibition of ERK4 (unknown origin) assessed as remaining activity at 1 uM by Kinome scan method relative to control
Mitogen-activated protein kinase 4 (Homo sapiens), sequence (P31152 whole entry): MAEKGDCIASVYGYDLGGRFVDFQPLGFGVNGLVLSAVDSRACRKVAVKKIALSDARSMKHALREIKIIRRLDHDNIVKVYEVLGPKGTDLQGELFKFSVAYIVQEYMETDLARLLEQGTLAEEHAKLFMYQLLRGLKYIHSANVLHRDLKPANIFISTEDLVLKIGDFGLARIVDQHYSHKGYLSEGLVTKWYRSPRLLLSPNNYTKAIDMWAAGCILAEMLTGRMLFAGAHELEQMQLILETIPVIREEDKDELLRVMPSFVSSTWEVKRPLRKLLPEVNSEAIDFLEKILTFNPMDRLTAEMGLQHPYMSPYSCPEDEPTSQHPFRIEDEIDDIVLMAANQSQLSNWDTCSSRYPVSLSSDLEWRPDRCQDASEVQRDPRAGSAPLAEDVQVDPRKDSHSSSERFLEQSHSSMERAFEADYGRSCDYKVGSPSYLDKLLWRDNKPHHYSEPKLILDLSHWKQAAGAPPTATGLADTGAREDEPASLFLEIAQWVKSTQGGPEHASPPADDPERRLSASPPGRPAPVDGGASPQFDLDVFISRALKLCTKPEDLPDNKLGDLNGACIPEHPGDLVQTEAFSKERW

[13] = target: TGF-beta receptor type-2 (Homo sapiens) (UniProt P37173); experiment: Inhibition of TGFBR2 (unknown origin) assessed as remaining activity at 1 uM by Kinome scan method relative to control
[14] = target: Dual specificity mitogen-activated protein kinase kinase 6 (Homo sapiens) (UniProt P52564); experiment: Inhibition of MEK6 (unknown origin) assessed as remaining activity at 1 uM by Kinome scan method relative to control
Dual specificity mitogen-activated protein kinase kinase 6 (Homo sapiens), sequence (P52564 whole entry): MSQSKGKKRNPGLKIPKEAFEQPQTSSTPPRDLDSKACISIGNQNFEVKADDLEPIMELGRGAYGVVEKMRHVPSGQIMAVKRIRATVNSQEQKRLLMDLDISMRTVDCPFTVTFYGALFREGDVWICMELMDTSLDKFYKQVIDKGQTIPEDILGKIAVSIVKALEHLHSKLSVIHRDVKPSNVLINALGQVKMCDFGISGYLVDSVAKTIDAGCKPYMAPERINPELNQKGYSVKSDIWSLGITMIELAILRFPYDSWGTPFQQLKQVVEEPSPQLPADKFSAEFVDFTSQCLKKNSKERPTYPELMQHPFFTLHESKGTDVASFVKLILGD

[15] = target: Interleukin-1 receptor-associated kinase 3 (Homo sapiens) (UniProt Q9Y616); experiment: Inhibition of IRAK3 (unknown origin) assessed as remaining activity at 1 uM by Kinome scan method relative to control
Interleukin-1 receptor-associated kinase 3 (Homo sapiens), sequence (Q9Y616 whole entry): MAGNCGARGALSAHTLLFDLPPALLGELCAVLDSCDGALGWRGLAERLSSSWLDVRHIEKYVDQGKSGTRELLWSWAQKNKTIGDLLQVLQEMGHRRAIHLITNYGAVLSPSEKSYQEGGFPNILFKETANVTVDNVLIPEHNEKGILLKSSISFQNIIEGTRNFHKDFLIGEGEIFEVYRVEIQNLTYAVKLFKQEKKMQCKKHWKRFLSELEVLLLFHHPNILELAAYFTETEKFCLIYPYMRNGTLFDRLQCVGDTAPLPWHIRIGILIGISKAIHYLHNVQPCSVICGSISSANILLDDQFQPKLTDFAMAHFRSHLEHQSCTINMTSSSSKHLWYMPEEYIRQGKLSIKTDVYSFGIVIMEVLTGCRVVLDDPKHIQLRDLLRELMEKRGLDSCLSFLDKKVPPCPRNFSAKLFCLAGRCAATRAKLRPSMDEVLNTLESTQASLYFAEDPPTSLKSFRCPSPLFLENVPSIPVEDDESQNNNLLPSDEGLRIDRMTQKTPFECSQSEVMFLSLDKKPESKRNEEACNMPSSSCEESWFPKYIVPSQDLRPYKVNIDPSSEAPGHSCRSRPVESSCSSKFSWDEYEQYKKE

[16] = target: Phosphatidylinositol 4-kinase beta (Homo sapiens) (UniProt Q9UBF8); experiment: Inhibition of PIK4CB (unknown origin) assessed as remaining activity at 1 uM by Kinome scan method relative to control
[17] = target: Receptor-interacting serine/threonine-protein kinase 4 (Homo sapiens) (UniProt P57078); experiment: Inhibition of RIPK4 (unknown origin) assessed as remaining activity at 1 uM by Kinome scan method relative to control
[18] = target: Homeodomain-interacting protein kinase 3 (Homo sapiens) (UniProt Q9H422); experiment: Inhibition of HIPK3 (unknown origin) assessed as remaining activity at 1 uM by Kinome scan method relative to control
Homeodomain-interacting protein kinase 3 (Homo sapiens), sequence (Q9H422 whole entry, looked up): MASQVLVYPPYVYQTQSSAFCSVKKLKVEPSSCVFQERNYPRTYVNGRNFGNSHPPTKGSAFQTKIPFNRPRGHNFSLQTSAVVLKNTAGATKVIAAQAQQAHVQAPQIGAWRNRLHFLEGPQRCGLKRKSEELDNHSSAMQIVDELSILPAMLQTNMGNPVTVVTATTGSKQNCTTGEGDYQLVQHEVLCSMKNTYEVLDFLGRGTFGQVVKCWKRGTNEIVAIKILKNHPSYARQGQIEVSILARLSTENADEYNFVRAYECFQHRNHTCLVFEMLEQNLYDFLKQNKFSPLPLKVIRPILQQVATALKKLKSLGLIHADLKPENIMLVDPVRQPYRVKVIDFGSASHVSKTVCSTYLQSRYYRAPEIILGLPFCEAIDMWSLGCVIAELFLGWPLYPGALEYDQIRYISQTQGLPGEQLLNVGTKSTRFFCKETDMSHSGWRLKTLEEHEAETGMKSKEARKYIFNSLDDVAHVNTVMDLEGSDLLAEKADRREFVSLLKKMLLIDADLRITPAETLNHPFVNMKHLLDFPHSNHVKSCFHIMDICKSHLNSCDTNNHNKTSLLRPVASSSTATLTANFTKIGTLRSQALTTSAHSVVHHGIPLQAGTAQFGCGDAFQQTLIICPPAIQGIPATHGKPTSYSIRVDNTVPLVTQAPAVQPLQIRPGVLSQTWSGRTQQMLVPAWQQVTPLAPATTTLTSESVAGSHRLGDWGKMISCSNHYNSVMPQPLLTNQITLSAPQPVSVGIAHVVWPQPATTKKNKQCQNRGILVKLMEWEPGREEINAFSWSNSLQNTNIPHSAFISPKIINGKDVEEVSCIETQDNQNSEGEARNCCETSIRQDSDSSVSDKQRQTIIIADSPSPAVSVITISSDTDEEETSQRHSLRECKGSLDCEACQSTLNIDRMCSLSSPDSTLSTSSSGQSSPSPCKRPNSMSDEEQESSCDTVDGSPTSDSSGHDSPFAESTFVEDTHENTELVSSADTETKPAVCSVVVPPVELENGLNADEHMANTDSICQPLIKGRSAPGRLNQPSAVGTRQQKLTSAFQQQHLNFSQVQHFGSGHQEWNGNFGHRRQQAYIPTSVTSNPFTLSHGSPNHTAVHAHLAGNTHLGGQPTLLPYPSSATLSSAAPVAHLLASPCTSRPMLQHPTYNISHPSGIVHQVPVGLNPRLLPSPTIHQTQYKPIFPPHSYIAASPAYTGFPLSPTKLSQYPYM

Phosphatidylinositol 5-phosphate 4-kinase type-2 beta (Homo sapiens), sequence (P78356 whole entry): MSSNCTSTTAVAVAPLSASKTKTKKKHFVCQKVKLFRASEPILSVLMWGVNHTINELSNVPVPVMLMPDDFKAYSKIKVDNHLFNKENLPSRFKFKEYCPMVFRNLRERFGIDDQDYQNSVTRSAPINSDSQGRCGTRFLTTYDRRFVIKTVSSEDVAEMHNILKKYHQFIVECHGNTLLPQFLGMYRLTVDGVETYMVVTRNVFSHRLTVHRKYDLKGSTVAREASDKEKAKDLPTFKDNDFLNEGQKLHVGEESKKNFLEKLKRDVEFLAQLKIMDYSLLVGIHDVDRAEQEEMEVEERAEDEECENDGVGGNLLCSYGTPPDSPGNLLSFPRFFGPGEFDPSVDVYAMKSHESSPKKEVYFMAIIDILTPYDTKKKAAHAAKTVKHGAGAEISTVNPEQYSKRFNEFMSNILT

## Nc1ccccc1Nc1ccc2c(c1)CCc1ccccc1C2=O
[1]
  Activity: 86%
[2]
  Activity: 78%
[3]
  Activity: 75%
[4]
  Activity: 0.9%
[5]
  Activity: 86%
[6]
  Activity: 83%
[7]
  Activity: 82%
[8]
  Activity: 98%
[9]
  Activity: 98%
[10]
  Activity: 96%
[11]
  Activity: 97%
[12]
  Activity: 97%
[13]
  Activity: 93%
[14]
  Activity: 76%
[15]
  Activity: 90%
[16]
  Activity: 91%
[17]
  Activity: 80%
[18]
  Activity: 64%

## O=C1c2ccc(Nc3ccc(F)cc3F)cc2CCc2ccc(OC[C@H](O)CO)cc21 [Skepinone-L]
[1]
  Activity: 100%
[2]
  Activity: 88%
[3]
  Activity: 86%
[4]
  Activity: 0.15%
[5]
  Activity: 100%
[6]
  Activity: 94%
[7]
  Activity: 100%
[8]
  Activity: 85%
[9]
  Activity: 100%
[10]
  Activity: 99%
[11]
  Activity: 95%
[12]
  Activity: 100%
[13]
  Activity: 100%
[14]
  Activity: 82%
[15]
  Activity: 97%
[16]
  Activity: 95%
[17]
  Activity: 90%
[18]
  Activity: 67%
